These results are taken from patent publication US20050075269A1, “Substituted benzofuran-2-carboxamides derivatives” (priority 2001, published 2005).

Structures can show the parent of a compound that is named as a salt.

For the compound `CNCCNC(=O)c1cc2cc(N3CCN(CCCCc4c[nH]c5ccc(C#N)cc45)CC3)ccc2o1` (as salt: hydrochloride) [f), N-(2-methylaminoethyl)-5-{4-[4-(5-cyano-1H-indol-3-yl)butyl]piperazin-1-yl}benzofuran-2-carboxamide], the melting point is greater than 233 °C.

By melting point is commonly meant the temperature, or range, at which the solid turns liquid.
